Experimental data reported in patent US20120010075A1 (priority 2009, published 2012).
Read-outs that look alike come from different tables or passages of the source.

What was measured:
[1] = tested on: Leptosphaeria nodorum (LEPTNO); assay: In vitro fungitoxicity of hydrazones with and without copper towards Leptosphaeria nodorum (Example 26); assay type: cell-based; conditions: for inhibition of growth at 0.05 µg/mL: Parastagonospora nodorum, 72 h, read-out: LEPTNO % Inhn. Minus Copper Observed
Phytophthora infestans = assay type: in vivo, Phytophthora infestans on tomato; conditions: applied 24 h before inoculation, assessed 7 days after inoculation
[2] = compound 0.05 μg/mL, copper-minus medium, 72 h at 25° C.
[3] = compound 0.05 μg/mL, copper-plus medium (CuCl2.2H2O), 72 h at 25° C.
[4] = hydrazone 50 ppm + 50 μM CuCl2.2H2O, tomato
[5] = copper-minus medium, test compound Concn. 0.05 μg/mL, 72 h at 25° C.
[6] = copper-plus medium (CuCl2 10 μM), test compound Concn. 0.05 μg/mL, 72 h at 25° C.
[7] = hydrazone 50 ppm with 50 μM CuCl2.2H2O, tomato late blight

Compound	inhibition of growth at 0.05 µg/mL [1, 2]	LEPTNO % Inhn. Plus Copper Observed [1, 3]	TLB % Control (Phytophthora infestans; [4])	inhibition of growth at 0.05 µg/mL [1, 5]	LEPTNO % Inhn. Plus Copper Observed [1, 6]	TLB % Control (Phytophthora infestans; [7])	inhibition of growth at 0.05 µg/mL [1]
C/C(=N\NC(=O)c1ccccc1Cl)c1ccccc1O [Example 212]	0%	95.2%	14.0%	–	–	–	–
Cc1ccccc1C(=O)N/N=C/c1cc(Cl)ccc1O [Example 157]	7.8%	96.9%	61.8%	–	–	–	–
C/C(=N\NC(=O)Cc1ccccc1)c1ccccc1O [Example 128]	10.8%	88.6%	38.0%	–	–	–	–
C/C(=N\NC(=O)c1cccc(Br)c1)c1ccccc1O [Example 63]	0%	96.7%	40.4%	–	–	–	–
O=C(N/N=C/c1cc(Br)cc(Br)c1O)c1ccc(OC(F)(F)F)cc1 [Example 109]	27.8%	98.3%	89.1%	–	–	–	–
COc1ccc(C(=O)N/N=C/c2cc(Cl)cc(Cl)c2O)cc1 [Example 75]	0%	98.4%	15.8%	–	–	–	–
O=C(N/N=C/c1cc(Cl)cc(Cl)c1O)c1ccc(F)cc1 [Example 22]	16%	97.6%	93.2%	–	–	–	–
C/C(=N\NC(=O)c1ccc(F)cc1)c1cc(Cl)cc(Cl)c1O [Example 59]	12.8%	97.5%	79.7%	–	–	–	–
CC/C(=N\NC(=O)c1ccccc1)c1ccccc1O [Example 130]	1.2%	98.6%	50.8%	–	–	–	–
O=C(N/N=C/c1cc(Br)cc(Br)c1O)c1ccccc1Cl [Example 112]	8.1%	97.8%	78.2%	–	–	–	–
COc1cccc(C(=O)N/N=C(\C)c2ccccc2O)c1 [Example 53]	0%	96.8%	62.0%	–	–	–	–
CC/C(=N\NC(=O)c1ccccc1Cl)c1ccccc1O [Example 50]	3.5%	97.4%	43.5%	–	–	–	–
COc1cccc(C(=O)N/N=C/c2cc(Br)ccc2O)c1 [Example 185]	0%	95.2%	54.6%	–	–	–	–
COc1ccccc1C(=O)N/N=C/c1cc(Br)cc(Br)c1O [Example 114]	0%	36.9%	7.5%	–	–	–	–
COc1cc(Br)cc(/C=N/NC(=O)c2ccc(C)cc2)c1O [Example 206]	16.4%	98.4%	80.7%	–	–	–	–
C/C(=N\NC(=O)c1ccccc1O)c1cc(C(F)(F)F)ccc1O [Example 538]	–	–	–	12.4%	96.5%	44.0%	–
Cc1ccc(C(=O)N/N=C/c2cc([N+](=O)[O-])cc(Br)c2O)cc1 [Example 202]	2%	96.6%	49.1%	–	–	–	–
C/C(=N\NC(=O)c1ccc(C(C)(C)C)cc1)c1ccccc1O [Example 55]	0%	95.5%	43.9%	–	–	–	–
CCOc1ccc(C(=O)N/N=C/c2cc(Br)cc(Br)c2O)cc1 [Example 104]	27.7%	98.2%	70.2%	–	–	–	–
CCOc1ccc(C(=O)N/N=C(\C)c2ccccc2O)cc1 [Example 18]	0%	96.9%	38.6%	–	–	–	–
Cc1ccccc1C(=O)N/N=C/c1cc(Br)ccc1O [Example 158]	6.2%	96.9%	84.7%	–	–	–	–
O=C(N/N=C/c1cc(Br)cc(Br)c1O)c1cccc(Br)c1 [Example 113]	17%	98.0%	94.7%	–	–	–	–
C/C(=N\NC(=O)c1ccccc1C)c1ccccc1O [Example 66]	0.1%	97.4%	51.0%	–	–	–	–
O=C(N/N=C/c1cc(Cl)cc([N+](=O)[O-])c1O)c1ccc(Cl)cc1 [Example 199]	4%	98.0%	56.1%	–	–	–	–
COc1cc(Br)cc(/C=N/NC(=O)c2ccccc2)c1O [Example 156]	7.4%	94.8%	51.5%	–	–	–	–

Compound	inhibition of growth at 0.05 µg/mL [1, 2]	LEPTNO % Inhn. Plus Copper Observed [1, 3]	TLB % Control (Phytophthora infestans; [4])	inhibition of growth at 0.05 µg/mL [1, 5]	LEPTNO % Inhn. Plus Copper Observed [1, 6]	TLB % Control (Phytophthora infestans; [7])	inhibition of growth at 0.05 µg/mL [1]
O=C(N/N=C/c1cc(Br)ccc1O)c1ccccc1Br [Example 160]	3.4%	96.1%	65.5%	–	–	–	–
O=C(N/N=C/c1cc(Cl)ccc1O)c1ccc(Br)cc1 [Example 191]	15.4%	98.1%	29.8%	–	–	–	–
C/C(=N\NC(=O)c1ccc(C)cc1)c1ccccc1O [Example 36]	5.9%	98.4%	33.9%	–	–	–	–
C/C(=N\NC(=O)c1ccc(F)cc1)c1ccccc1O [Example 62]	0%	96.3%	56.1%	–	–	–	–
O=C(N/N=C/c1cc(Cl)cc(Cl)c1O)c1ccc(Br)cc1 [Example 80]	0%	98.4%	91.5%	–	–	–	–
O=C(N/N=C/c1cc(Cl)cc(Cl)c1O)c1cccc(F)c1 [Example 89]	17.5%	95.9%	85.8%	–	–	–	–
COc1ccccc1C(=O)N/N=C/c1cc(Cl)cc(Cl)c1O [Example 94]	0%	92.9%	37.0%	–	–	–	–
C/C(=N\NC(=O)c1cccc([N+](=O)[O-])c1)c1ccccc1O [Example 37]	3.3%	97.0%	33.0%	–	–	–	–
COc1cccc(/C=N/NC(=O)c2ccccc2)c1O [Example 149]	0%	97.1%	22.1%	–	–	–	–
O=C(N/N=C/c1cc(Cl)cc(Br)c1O)c1cccc(Br)c1 [Example 163]	5.9%	98.0%	87.7%	–	–	–	–
CC(C)(C)c1ccc(C(=O)N/N=C/c2cc(Cl)cc(Cl)c2O)cc1 [Example 87]	8.1%	98.6%	69.5%	–	–	–	–
O=C(N/N=C/c1cc(Cl)cc(Br)c1O)c1ccccc1Cl [Example 161]	7%	97.7%	58.2%	–	–	–	–
Cc1ccc(C(=O)N/N=C/c2cc(Br)ccc2O)cc1 [Example 179]	18.7%	98.0%	35.1%	–	–	–	–
Cc1cccc(C(=O)N/N=C/c2cc(Cl)cc(Br)c2O)c1 [Example 194]	–	96.9%	80.4%	–	–	–	16.1%
O=C(N/N=C/c1cc(Cl)cc(Br)c1O)c1cccc(Cl)c1 [Example 192]	7.8%	94.7%	84.2%	–	–	–	–
CC(C)/C(=N\NC(=O)c1ccccc1)c1cc(Cl)cc(Cl)c1O [Example 588]	–	–	–	7.6%	96.3%	5.6%	–
O=C(N/N=C/c1cc(I)cc(I)c1O)c1ccc(Cl)cc1 [Example 198]	11.8%	97.7%	75.4%	–	–	–	–
O=C(N/N=C/c1cccc([N+](=O)[O-])c1O)c1ccccc1 [Example 145]	2.4%	97.2%	55.9%	–	–	–	–
Cc1cccc(C(=O)N/N=C/c2cc(Cl)cc(Cl)c2O)c1 [Example 95]	14.1%	94.0%	81.2%	–	–	–	–
O=C(N/N=C/c1cc(Br)cc(Br)c1O)c1ccc(Br)cc1 [Example 118]	10.6%	98.3%	85.3%	–	–	–	–
O=C(N/N=C/c1cc([N+](=O)[O-])ccc1O)c1ccccc1 [Example 152]	0%	89.1%	26.0%	–	–	–	–
O=C(N/N=C/c1cc(Br)ccc1O)c1cccc(Cl)c1 [Example 176]	8.8%	98.2%	61.4%	–	–	–	–
C/C(=N\NC(=O)c1ccc(Cl)cc1)c1cc(Br)ccc1O [Example 293]	7.9%	95.7%	19.0%	–	–	–	–
C/C(=N\NC(=O)c1ccc(C(C)C)cc1)c1ccccc1O [Example 40]	0%	94.8%	64.9%	–	–	–	–
C/C(=N\NC(=O)c1ccccc1O)c1ccccc1O [Example 213]	3.7%	98.8%	56.1%	–	–	–	–
